Laboratory results taken from US8362027B2, “Iontophoretic preparation for treatment of breast cancer and/or mastitis” (Kowa Co., Ltd., priority 2005, dated 2013).
Read-outs that look alike come from different tables or passages of the source.

Experiments:
[1] = not given; remark: listed apart in the source
[2] = nipple skin (corrected to nipple part only), no application of electric potential, 60 min
[3] = nipple skin (corrected to nipple part only), no application of electric potential, 120 min
[4] = nipple skin (corrected to nipple part only), no application of electric potential, 180 min
[5] = nipple skin, no application of electric potential

In the case of O=P1(N(CCCl)CCCl)NCCCO1 (stereo not shown) [cyclophosphamide], the “permeated amount of cyclophosphamide” value (nipple skin (corrected to nipple part only), application of electric potential (0.1 mA/cm^2), 0 min) is reported as 0.0 μg/cm^2, the “permeated amount of cyclophosphamide” value (nipple skin (corrected to nipple part only), application of electric potential (0.1 mA/cm^2), 30 min) is reported as 34.3 μg/cm^2 and the “permeated amount of cyclophosphamide” value (nipple skin (corrected to nipple part only), application of electric potential (0.1 mA/cm^2), 60 min) is reported as 123.2 μg/cm^2. The “permeated amount of cyclophosphamide” value (nipple skin (corrected to nipple part only), application of electric potential (0.1 mA/cm^2), 90 min) was 125.3 μg/cm^2, the “permeated amount of cyclophosphamide” value (nipple skin (corrected to nipple part only), application of electric potential (0.1 mA/cm^2), 120 min) was 121.4 μg/cm^2 and the “permeated amount of cyclophosphamide” value (nipple skin (corrected to nipple part only), application of electric potential (0.1 mA/cm^2), 150 min) was 120.4 μg/cm^2. The “permeated amount of cyclophosphamide” value (nipple skin (corrected to nipple part only), application of electric potential (0.1 mA/cm^2), 180 min) was 123.1 μg/cm^2, the “permeated amount of cyclophosphamide” value (nipple skin (corrected to nipple part only), no application of electric potential, 0 min) was 0.0 μg/cm^2 and the “permeated amount of cyclophosphamide” value (nipple skin (corrected to nipple part only), no application of electric potential, 30 min) was 24.9 μg/cm^2. The “permeated amount of cyclophosphamide” value [2] was 2.0 μg/cm^2, the “permeated amount of cyclophosphamide” value (nipple skin (corrected to nipple part only), no application of electric potential, 90 min) was 6.9 μg/cm^2 and the “permeated amount of cyclophosphamide” value [3] was 20.2 μg/cm^2. For the same compound, the “permeated amount of cyclophosphamide” value (nipple skin (corrected to nipple part only), no application of electric potential, 150 min) was 1.4 μg/cm^2, the “permeated amount of cyclophosphamide” value [4] was 6.9 μg/cm^2 and the “Increase rate of permeated amount after 180 minutes with respect to normal skin without application of electric potential” value (nipple skin, application of electric potential (0.1 mA/cm^2)) was 7.1. The “Increase rate of permeated amount after 180 minutes with respect to normal skin without application of electric potential” value [5] was 0.4, the “change of permeability of cyclophosphamide” value (nipple without electric potential, compared with normal skin) was “not enhanced” and the “increase of permeability of cyclophosphamide” value (nipple, electric potential (0.1 mA/cm^2), vs normal skin without potential) was “about 7.1 times”. The “Increase rate of permeated amount after 180 minutes with respect to normal skin without application of electric potential” value (normal skin, application of electric potential (0.1 mA/cm^2)) was 0.9, the “permeated amount of cyclophosphamide” value (normal skin, application of electric potential (0.1 mA/cm^2), 0 min, donor 25 mM, pH 3) was 0.0 μg/cm^2 and the “permeated amount of cyclophosphamide” value (normal skin, application of electric potential (0.1 mA/cm^2), 30 min, donor 25 mM, pH 3) was 13.4 μg/cm^2. The “permeated amount of cyclophosphamide” value (normal skin, application of electric potential (0.1 mA/cm^2), 60 min, donor 25 mM, pH 3) was 13.9 μg/cm^2, the “permeated amount of cyclophosphamide” value (normal skin, application of electric potential (0.1 mA/cm^2), 90 min, donor 25 mM, pH 3) was 13.7 μg/cm^2 and the “permeated amount of cyclophosphamide” value (normal skin, application of electric potential (0.1 mA/cm^2), 120 min, donor 25 mM, pH 3) was 16.2 μg/cm^2. For the same compound, the “permeated amount of cyclophosphamide” value (normal skin, application of electric potential (0.1 mA/cm^2), 150 min, donor 25 mM, pH 3) was 16.3 μg/cm^2, the “permeated amount of cyclophosphamide” value (normal skin, application of electric potential (0.1 mA/cm^2), 180 min, donor 25 mM, pH 3) was 16.2 μg/cm^2 and the “change of permeability of cyclophosphamide” value (normal skin, electric potential applied (0.1 mA/cm^2), vs without potential) was “hardly changed”. For the same compound, the “permeated amount of cyclophosphamide” value (normal skin, no application of electric potential, 0 min, donor 25 mM, pH 3) was 0.0 μg/cm^2, the “permeated amount of cyclophosphamide” value (normal skin, no application of electric potential, 30 min, donor 25 mM, pH 3) was 13.3 μg/cm^2 and the “permeated amount of cyclophosphamide” value (normal skin, no application of electric potential, 60 min, donor 25 mM, pH 3) was 14.4 μg/cm^2. For the same compound, the “permeated amount of cyclophosphamide” value (normal skin, no application of electric potential, 90 min, donor 25 mM, pH 3) was 15.0 μg/cm^2, the “permeated amount of cyclophosphamide” value (normal skin, no application of electric potential, 120 min, donor 25 mM, pH 3) was 15.5 μg/cm^2 and the “permeated amount of cyclophosphamide” value (normal skin, no application of electric potential, 150 min, donor 25 mM, pH 3) was 17.2 μg/cm^2. For the same compound, the “permeated amount of cyclophosphamide” value (normal skin, no application of electric potential, 180 min, donor 25 mM, pH 3) was 17.4 μg/cm^2.
With O=c1[nH]cc(F)c(=O)[nH]1 [5-fluorouracil] the “permeated amount of 5-fluorouracil” value ([1]; nipple skin (corrected to nipple part only), application of electric potential (3 V), 60 min) was 17.6 μg/cm^2, the “permeated amount of 5-fluorouracil” value ([1]; nipple skin (corrected to nipple part only), application of electric potential (3 V), 120 min) was 151.7 μg/cm^2 and the “permeated amount of 5-fluorouracil” value ([1]; nipple skin (corrected to nipple part only), application of electric potential (3 V), 180 min) was 383.3 μg/cm^2. The “permeated amount of 5-fluorouracil” value ([1]; nipple skin (corrected to nipple part only), application of electric potential (3 V), 240 min) was 676.3 μg/cm^2, the “permeated amount of 5-fluorouracil” value ([1]; nipple skin (corrected to nipple part only), application of electric potential (3 V), 300 min) was 1032.3 μg/cm^2 and the “permeated amount of 5-fluorouracil” value ([1]; nipple skin (corrected to nipple part only), application of electric potential (3 V), 360 min) was 1391.3 μg/cm^2. For the same compound, the “permeated amount of 5-fluorouracil” value [1, 2] was 0.0 μg/cm^2, the “permeated amount of 5-fluorouracil” value [1, 3] was 0.2 μg/cm^2 and the “permeated amount of 5-fluorouracil” value [1, 4] was 0.7 μg/cm^2. The “permeated amount of 5-fluorouracil” value ([1]; nipple skin (corrected to nipple part only), no application of electric potential, 240 min) was 1.6 μg/cm^2, the “permeated amount of 5-fluorouracil” value ([1]; nipple skin (corrected to nipple part only), no application of electric potential, 300 min) was 3.0 μg/cm^2 and the “permeated amount of 5-fluorouracil” value ([1]; nipple skin (corrected to nipple part only), no application of electric potential, 360 min) was 5.6 μg/cm^2. The “Increase rate of permeated amount after 360 minutes with respect to normal skin without application of electric potential” value ([1]; nipple skin, application of electric potential (3 V)) was 9937.8, the “Increase rate of permeated amount after 360 minutes with respect to normal skin without application of electric potential” value [1, 5] was 39.7 and the “increase of permeability of 5-fluorouracil” value (“increase … of 5-fluorouracil” for short) ([1]; nipple, compared with the permeability without application of electric potential) was “about 40 times”. For the same compound, the “increase … of 5-fluorouracil” value ([1]; nipple, electric potential applied (3V), vs normal skin) was “about 10000 times”, the “Increase rate of permeated amount after 360 minutes with respect to normal skin without application of electric potential” value ([1]; normal skin, application of electric potential (3 V)) was 3430.7 and the “permeated amount of 5-fluorouracil” value ([1]; normal skin, application of electric potential (3 V), 60 min, donor 1%, pH 8.5) was 1.3 μg/cm^2. The “permeated amount of 5-fluorouracil” value ([1]; normal skin, application of electric potential (3 V), 120 min, donor 1%, pH 8.5) was 11.7 μg/cm^2, the “permeated amount of 5-fluorouracil” value ([1]; normal skin, application of electric potential (3 V), 180 min, donor 1%, pH 8.5) was 44.4 μg/cm^2 and the “permeated amount of 5-fluorouracil” value ([1]; normal skin, application of electric potential (3 V), 240 min, donor 1%, pH 8.5) was 121.5 μg/cm^2. For the same compound, the “permeated amount of 5-fluorouracil” value ([1]; normal skin, application of electric potential (3 V), 300 min, donor 1%, pH 8.5) was 264.9 μg/cm^2, the “permeated amount of 5-fluorouracil” value ([1]; normal skin, application of electric potential (3 V), 360 min, donor 1%, pH 8.5) was 480.3 μg/cm^2 and the “increase … of 5-fluorouracil” value ([1]; normal skin, electric potential applied (3V), vs without potential) was “about 3000 times”. The “permeated amount of 5-fluorouracil” value ([1]; normal skin, no application of electric potential, 60 min, donor 1%, pH 8.5) was 0.0 μg/cm^2, the “permeated amount of 5-fluorouracil” value ([1]; normal skin, no application of electric potential, 120 min, donor 1%, pH 8.5) was 0.0 μg/cm^2 and the “permeated amount of 5-fluorouracil” value ([1]; normal skin, no application of electric potential, 180 min, donor 1%, pH 8.5) was 0.0 μg/cm^2. The “permeated amount of 5-fluorouracil” value ([1]; normal skin, no application of electric potential, 240 min, donor 1%, pH 8.5) was 0.0 μg/cm^2, the “permeated amount of 5-fluorouracil” value ([1]; normal skin, no application of electric potential, 300 min, donor 1%, pH 8.5) was 0.1 μg/cm^2 and the “permeated amount of 5-fluorouracil” value ([1]; normal skin, no application of electric potential, 360 min, donor 1%, pH 8.5) was 0.1 μg/cm^2.
